We go through 92 molecules from a melting point compilation (Tetko et al.; mined from patent text by program, amines drawn as free bases though some values may be those of a salt).

What is called melting point is the temperature, or range, at which the solid turns liquid. Turning to `Cc1cc(NC(=O)c2cccnc2Cl)[nH]n1`, the melting point was > 300 °C. To `COc1ccc(CO)cc1OCc1nc(-c2ccco2)oc1C` belongs 145 to 146 °C; to `O=C(COCc1cc(Br)cc2[nH]c(=O)c(=O)[nH]c12)Nc1ccccc1`, > 250 °C. The figure for `OC(Cn1ccnc1)C12CC3CC(CC(C3)C1)C2` (configuration not stated) is 226 to 228 °C; for `OCc1cc2cc3c(cc2nc1I)OCCO3` it is 178 to 180 °C.

As for `CN1CCN(c2nn(S(=O)(=O)c3ccccc3)c3ccc(Br)cc23)CC1`, the melting point was 135 to 137 °C. With `COC12CC(CN3CCC(c4c[nH]c5ccccc45)CC3)CN(C)C1Cc1c[nH]c3cccc2c13` (configuration not stated), the melting point is 222 to 227 °C. Turning to `Cc1ccc(N)c(S)c1`, the melting point worked out at 90 °C. To `N=C(N)NCCCOc1ccc2c(c1)NC(=O)C(CCC(=O)O)C2` (configuration not stated) belongs 157 to 159 °C. The figure for `CCn1c(Br)cc2c(C)nc3c(Br)cnn3c21` is 135 to 137 °C. To `CC(C)c1cc(C(=O)O)sc1C(C)C` belongs 149 to 151 °C; to `O=C(O)c1nc(C2CC2)[nH]c(=O)c1Cl`, 189 to 190 °C; to `Cc1cc(C(=O)NCO)ncc1C(c1c(F)ccc(F)c1F)S(=O)(=O)c1ccc(OC(F)(F)F)cc1` (configuration not stated), 140 to 141 °C. `O=C(Nc1ccc2oc3c(c2c1)CCCC3)c1ccc([N+](=O)[O-])cc1` registered a melting point of 279 to 280 °C. The molecule `CCOCc1nc2c(N)nc3c(c2n1CCCCS(=O)(=O)N(C)C)CCCC3` returned a melting point of 165 to 167 °C. The figure for `CCCCC1(N(C)C)CCC(c2[nH]c3ccc(C(F)(F)F)cc3c2C)CC1` (configuration not stated) is 141 to 146 °C. In the case of `CC(C)c1ccc2c(-c3cc(C(C)(C)C)c(O)c(C(C)(C)C)c3)nn(CCO)c2n1`, the melting point was in the range of 110 to 111 °C.

`COc1ccc(CON(CCCBr)S(=O)(=O)c2ccc(C)cc2)cc1`: the melting point fell in the range of 89.5 to 91.5 °C.

`CC(CCCC(C)(C)O)C1CCC2C3=CC=C4CC(O)C5OC5C4(C)C3CCC21C` (configuration not stated) returned a melting point of 173 to 175 °C. Regarding `COc1ccc(N(CCN2CCC(C(=O)c3ccc(F)cc3)CC2)C(=O)c2ccc(N)cc2)c(OC)c1`, the melting point fell in the range of 135 to 138 °C. The figure for `O=C1CCC(Cc2ccc(Br)cc2)=C1O` is 144 to 145 °C; for `COC(=O)CCCCNC(=O)c1sc2ccc(OC)cc2c1OC(C)C` it is 82 to 84 °C. Molecule `CCc1nc(-c2ccc(OCCCN3C(=O)c4ccccc4C3=O)cc2)no1` had a melting point of 135 to 136 °C. To `O=C(Nc1ccccc1F)O[C@@H]1CN=C(c2ccccc2)O[C@H]1c1ccccc1` (racemic) belongs 98 °C. The molecule `CC1(C)CC(c2c[nH]c(-c3ccc(F)cc3)c2-c2ccncc2)CC(C)(C)N1` gave a melting point of 242 to 243 °C. The figure for `Cc1cc(Oc2cccnc2)c(S(C)(=O)=O)cc1C(=O)N=C(N)N` is 221 to 224 °C; for `COc1ccc2cc(-c3cnc(-c4ccccc4)o3)ccc2c1` it is 149 to 151 °C; for `CCOC(=O)Cc1csc(NC(N)=O)n1` it is 173 to 174 °C. Regarding `O=C(/C=C/c1ccc2ccccc2c1)Nc1cc(Cl)ccc1OCc1nnn[nH]1`, the melting point lay within 218 to 223 °C. For `CC(C)(C)NS(=O)(=O)c1cccc(F)n1`, the melting point was in the range of 88 to 90 °C. To `Cc1cc(C)cc(NC(=O)NC2CC2)c1` belongs 169 °C; to `O=S(c1ccccc1)C1O[C@H](COCc2ccccc2)[C@@H](OCc2ccccc2)[C@H](OCc2ccccc2)[C@H]1OCc1ccccc1` (some centres not stated), 120 to 122 °C; to `CCCc1c(OCCCSc2ccc(C(=O)O)cn2)ccc(C(C)=O)c1O`, 145 to 147 °C. The figure for `COC(=O)c1nc2ccccc2o1` is 101 to 102 °C; for `CCN(CC)c1cncc(C(=O)Nc2nnn[nH]2)n1` it is 217 to 218 °C. To `CCOP(=O)(/C=C/c1cn(-c2ccccc2)nc1OCc1ccc(OCc2cn(-c3ccccn3)nc2C)c(OC)c1)OCC` belongs 103 to 104 °C; to `CC(C)(C)c1cc(C=O)c2c(c1O)CCC2`, 213 to 214 °C. For the molecule `Cn1nc(NC(=O)Cc2ccccc2)c(-c2ccncc2)c1-c1ccc(F)cc1`, the melting point was in the range of 158 to 160 °C. The figure for `O=C1CCC2=C(CCc3cc(F)ccc32)N1Cc1ccccc1` is 101 to 102 °C. For the molecule `Cc1cccc2[nH]c3c(c12)CCOC3(C)CC(=O)O` (configuration not stated), the melting point was 132 to 134 °C. For the molecule `CC(C)C1C(C=C(Br)Br)=CC=CN1C12CC3CC(CC(C3)C1)C2` (configuration not stated), the melting point was 176 to 177 °C. The figure for `COc1cc2c(cc1Br)[C@@H](O)[C@H](Br)C(C)(C)O2` (relative stereo) is 58 to 59 °C; for `O=C(O)c1cnn(-c2nc(-c3cc(C(F)(F)F)cc(C(F)(F)F)c3)cs2)c1C(F)(F)F` it is 204 to 205 °C; for `CC(C)(N)c1ccc(-c2nc(Nc3ccc(F)c(Cl)c3)ncc2C#N)cc1` it is 237 °C. Consider `O=C(O)c1ccc(CCCC2SCC(=O)N2CCC2(O)C3CCCC2CCC3)cc1` (configuration not stated), for which the melting point is 176 to 178 °C. `C#CCN1N=C(c2ccc(OC)c(OC)c2)[C@@H]2CCCC[C@@H]2C1=O` (relative stereo) yielded a melting point of 118 to 121 °C. `O=P1(c2ccccc2)CCCC1CO` (configuration not stated) registered a melting point of 109 to 110 °C. To `O=c1cc(CCl)nc2sc(-c3ccccc3)nn12` belongs 201 to 202 °C; to `O=C1c2ccc(N3CCCC3)c3c(Cl)c(Cl)cc(c23)C(=O)N1O`, 200 to 201 °C; to `COc1cccc(CNC(=O)c2nc3scc(COc4ccc(CC(=O)O)cc4)c3c(=O)[nH]2)c1`, 228 to 230 °C. The figure for `O=C1C(CCO)Oc2cc([N+](=O)[O-])ccc2N1Cc1cccc(Cl)c1` (configuration not stated) is 100 to 102 °C. Turning to `COC(=O)c1cc2cccnc2cc1C(=O)OC`, the melting point lay in the range of 101 to 102 °C. To `COc1cc(C)nc(NC(=O)NS(=O)(=O)c2ccccc2-n2cccn2)n1` belongs 200 to 204 °C; to `O=CC(=Cc1ccccc1)c1ccc(F)cc1`, 87 to 94 °C. As for `O=C1CCCC(Cl)=C1C(=O)c1ccc(Cl)c(OCCn2cnnn2)c1Cl`, the melting point was in the range of 122 to 124 °C. For the molecule `CCCCNc1ccn2nccc2n1`, the melting point was 75 to 76 °C.

On to `CCOCC1Cc2cc(S(N)(=O)=O)c(Cl)c(Cl)c2O1` (configuration not stated), for which the melting point lay in the range of 148 to 149 °C.

Consider `CCOC(=O)CON(C)C(=S)Nc1cc(Cl)ccc1C`, for which the melting point was 83 to 84 °C.

Regarding `O=[N+]([O-])c1ccc(-c2nc(-c3ccco3)no2)c(Cl)c1`, the melting point lay within 124 to 125 °C. With `Cc1n[nH]c2c1c(=O)n(-c1ccccc1)c1ncccc21`, the melting point was > 300 °C. The figure for `CCc1cn(C2CC(OCc3ccccc3)C(CNC(=O)Cc3c(Cl)cccc3Cl)O2)c(=O)[nH]c1=O` (configuration not stated) is 174 to 177 °C; for `CCOc1cccc(-c2ccc(C3=CCN(S(=O)(=O)CC(=O)OC)CC3)cc2)c1` it is 120 to 122 °C; for `CCc1cc2c(c(CC)n1)CCC(=O)N2Cc1ccc(Oc2ccccc2CC(=O)O)cc1` it is 122 to 124 °C.

Molecule `CC(C)N(CCC(CC(=O)N1CCCCC1)(C(=O)N(C)C)c1ccccc1)C(C)C` (configuration not stated) gave a melting point of 142 to 145 °C. To `O=C(O)c1sc2ccc(Br)cc2c1-c1ccccc1` belongs 265 to 266 °C; to `COC(=O)C(C)Oc1ccc(N(C)c2nnc3cc(Cl)ccc3n2)cc1` (configuration not stated), 120 °C. The figure for `NC(=O)N1C(=O)C(C(=O)c2cccs2)c2cnccc21` (configuration not stated) is 250 °C. The figure for `CNn1c(C)nn(C(=O)NC(C)(C)CCc2ccccc2)c1=O` is 102 °C; for `O=C(O)C(O)c1ccc2oc([N+](=O)[O-])c(-c3ccccc3)c2c1` (configuration not stated) it is 158 to 161 °C.

As to `O=c1c2cc(F)c(N3CCCC3)nc2n(-c2cccc(C(F)(F)F)c2)c(=O)n1O`, the melting point lay within 136 to 138 °C. For `Nc1ccc(Sc2ccccc2)cn1`, the melting point lay in the range of 127 to 129 °C. The figure for `CN(C(=O)C1CCCCC1)c1cccc(-c2nc(=O)c3ccccc3s2)n1` is 184 to 186 °C; for `Cc1nc(-c2ccccc2)nc(N2CCN(c3ccc(O)cc3)CC2)c1C` it is 202 °C. Consider `N#CC(C#N)=C(NCCN1CCCCC1)N1CCC(N2CCCCC2)CC1`, for which the melting point lay within 198 to 200 °C. To `CC1(N2C(=O)c3cccc([N+](=O)[O-])c3C2=O)C=CC(OC(F)(F)C(F)C(F)(F)F)=CC1` (configuration not stated) belongs 121 °C; to `CCc1cc(-c2[nH]c3ccccc3c2C)cc(CC)c1O`, 112 °C; to `CCOC(=O)c1cc(COc2cc3ncnc(Nc4ccc(Cl)cc4F)c3cc2OC)ccn1`, 212 to 214 °C. `O=C1Cc2cccc(Sc3ccc(Cl)cc3)c2N1` gave a melting point of 186 to 188 °C. In the case of `CCc1c(C(=O)O)ccc(OC)c1C`, the melting point worked out at 180 °C. In turn, `CC(C)(C)c1ccc(N2C[C@@H](COc3ccc(C(=O)O)cc3)CC2=O)cc1` registered a melting point of 247 to 248 °C.

Regarding `NC(=O)CN1C(=O)C[C@@H]2CCCCCC[C@@H]21` (relative stereo), the melting point is 110 to 112 °C. Take `O=C1CC(C(=O)O)N(C(=O)CCS)N1` (configuration not stated): the melting point lay within 140 to 142 °C. To `Clc1cc(N2CCN(CCOc3ccc(Br)cc3)CC2)c(Cl)nn1` belongs 124 to 126 °C; to `CCOC(=O)c1cc(OC)c2c(OC(C)C)ccc(Br)c2c1`, 62 °C; to `COc1ccc(C)cc1-c1cc(F)cc2c1OC(CN)C2` (configuration not stated), 110 to 111 °C. For `Nc1nc(OCc2ccccc2)c2ncn(CC(=O)O)c2n1`, the melting point lay in the range of 159 to 165 °C.

Molecule `CC(C)(C)c1ccc(-c2cc(=O)cc(N3CCOCC3)s2)cc1` had a melting point of 172 to 173 °C. The figure for `CN1c2ccccc2-c2nc3ccc(Cl)cc3c3cccc1c23` is 226 to 228 °C. To `COc1ccc2snnc2c1S(=O)(=O)Cl` belongs 131 to 134 °C. To `CC(C)n1nc(C#Cc2cccc(F)c2)ccc1=O` belongs 95.5 to 96.5 °C. Molecule `CCCCCCc1cc2c(cc1/C=C/c1ccc(C(=O)O)cc1)C(C)(C)CCC2(C)C` displayed a melting point of 134 to 136 °C.

`CC(C)n1c(NN)nc2ccccc2c1=O`: the melting point is 123 to 124 °C.
